How the values were obtained:
[1] = Toxicity to mice (LD50, single intraperitoneal administration); details: mouse, in vivo, ip, read-out: LD₅₀
Source text: The compounds of the formula I are characterized by relatively low toxicity and small accumulation of toxicity upon continuous administration.

[2] = tested on: Mice Sensitized by Sheep Red Blood Cells; experiment: Inhibition of delayed-type hypersensitivity in mice sensitized by sheep red blood cells (footpad swelling); format: in vivo, CDFl mice; details: relative to saline control = 100%, measured at the 24th hour
Description: CDFl mice (8-wk-old, female) were sensitized by intravenous injection of 1 x 10⁵ sheep red blood cells. Four days later, the sensitized mice were subcutaneously injected in one footpad with 1 x 10⁸ sheep red blood cells so as to induce delayed-type hypersensitivity. The swelling of the footpad was measured at the 24th hour with a micrometer. Each of the test compounds was administered intraperitoneally in the amounts (mg/kg) indicated in Table 3 for a period of 3 days that started on the day following the initial sensitization. The degree of footpad swelling was indicated in relative values, with the value for a control given physiological saline instead of the test compounds being taken as 100%.

[3] = tested on: Spleen cells from BALB/C mice; experiment: Inhibition of ConA-induced T-lymphocyte blast genesis (3H-thymidine uptake); format: cell-based; details: for inhibition of the reaction of T-lymphocyte blast genesis (in words): ConA-stimulated; for inhibition at 10 µg/mL / inhibition at 100 µg/mL: Mus musculus, T-lymphocyte, ConA 5 µg/ml, 72 hours; for inhibition at 10 µg/mL: 10 µg/ml compound; for inhibition at 100 µg/mL: 100 µg/ml compound
Description: (§1) Spleen cells from BALB/C mice were distributed among wells in a microplate so that each well contained 2 x 10⁵ cells/0.2 ml. Each of the selected test compounds was added to all wells but one, the latter being used as a control. ConA (5 µg/ml) was added to all the wells and the so prepared cell suspensions were cultivated in a 5% CO₂ incubator for 72 hours at 37°C. Eight hours before the completion of the incubation, 1 µCi of ³H-thymidine was added to each well and the uptake of the thymidine by the cultured cells was measured with a liquid scintillation counter to estimate the progress of reaction of T-lymphocyte blast genesis. The percentage inhibition of the genesis by each of the test compounds was calculated by: (1 - Bdpm/Adpm) x 100 wherein Adpm indicates the uptake count for the addition of ConA alone and Bdpm, the count for the addition of both ConA and the test compound.

[4] = tested on: Spleen cells from BALB/C mice; experiment: Inhibition of LPS-induced B-lymphocyte blast genesis (3H-thymidine uptake); format: cell-based; details: for suppression of LPS-induced genesis of B-lymphocyte blasts (in words): LPS-stimulated; for inhibition at 10 µg/mL / inhibition at 100 µg/mL: Mus musculus, 100 µg/ml of LPS from E. coli; for inhibition at 10 µg/mL: 10 µg/ml compound; for inhibition at 100 µg/mL: 100 µg/ml compound
Description: as §1
The uptake of ³H-thymidine by B-cell blasts was measured in accordance with the method used in Test Example 2, except that the inducer ConA was replaced by 100 µg/ml of LPS from E. coli. The percentage inhibition of blast genesis by selected test compounds was also determined by the same method as used in Text Example 2.

CDFl mice = experiment: Inhibition of production of antibodies against sheep red blood cells (plaque-forming spleen cells); format: in vivo; details: 12.5 mg/kg per day intraperitoneally for 3 days; plaque-forming spleen cells counted
Source text: The compounds of the formula I exert inhibitory effects on the function of lymphocytes of immunological importance. […] Therefore in vivo experiments have been conducted to examine the effects of the compounds of the formula I on T-lymphocytes. First, in accordance with the method of Lagrange et al. (Lagrange et al., Journal of Experimental Medicine, 139, 528-542, 1974), the compounds of the formula I were examined for their effects on delayed-type hypersensivity in mice that had been sensitized with sheep red blood cells. The delayed-type hypersensivity could be blocked by administering the compound for three consecutive days following the sensitization with sheep red blood cells. Additionally, in accordance with the method of Jerne et al. (Jerne et al., Cell-bound Antibodies, pp. 109-122, 1963), the compounds of the formula I were checked for their effects on the plaque-forming ability of spleen cells from mice sensitized by antigenic sheep red blood cells.
CDFl mice (6-10 wk old, female) were immunized by intravenous injection of 1 x 10⁸ sheep red blood cells. The mice were intraperitoneally administered 12.5 mg/kg per day of selected test compounds for a period of 3 days starting from the day following the intravenous injection. Four days later, spleen cells were isolated from the mice and the number of plaque-forming cells was counted. The percentage inhibition of antibody production was calculated by (1 - B/A) x 100 wherein A is the count for a control group (given physiological saline) and B, for the treated group.

[5] = 3.13 mg/kg intraperitoneally for 3 days
[6] = 12.5 mg/kg intraperitoneally for 3 days
[7] = 6.25 mg/kg intraperitoneally for 3 days
[8] = 25 mg/kg intraperitoneally for 3 days
[9] = 0.20 mg/kg intraperitoneally for 3 days
[10] = 0.78 mg/kg intraperitoneally for 3 days

Row | SMILES | LD50 [1] [mg/kg] | Footpad swelling (%) [2, 5] [%] | Footpad swelling (%) [2, 6] [%] | Footpad swelling (%) [2, 7] [%] | Footpad swelling (%) [2, 8] [%] | Footpad swelling (%) [2, 9] [%] | Footpad swelling (%) [2, 10] [%] | Footpad swelling (%) ([2]; 0.39 mg/kg intraperitoneally for 3 days) | inhibition of the reaction of T-lymphocyte blast genesis (in words) [3] | inhibition at 10 µg/mL [3] [%] | inhibition at 100 µg/mL [3] [%] | suppression of LPS-induced genesis of B-lymphocyte blasts (in words) [4] | inhibition at 10 µg/mL [4] [%] | inhibition at 100 µg/mL [4] [%] | percentage inhibition of antibody production (CDFl mice)
1 | COC(NC(=O)C=CCCCCNC(=N)N)C(=O)NCCCCNCCCN (centres unmarked) [(10), N-[4-(3-aminopropyl)aminobutyl]-2-[7-guanidinohepta-2-enamido]-2-methoxyethaneamide] | 25 to 50 | 37 | 6.0 | – | – | – | – | – | – | – | – | – | – | – | –
2 | N=C(N)Nc1ccc(CCCC(=O)N[C@@H](CO)C(=O)NCCCCNCCCN)cc1 [(7), N-[4-(3-aminopropyl)aminobutyl]-2-[4-(p-guanidinophenyl)-butaneamido]-(S)-2-hydroxymethylethaneamide] | 25 to 50 | – | – | 54 | 42 | – | – | – | – | – | – | – | – | – | –
3 | N=C(N)NCCCC[C@H](O)CC(=O)NC(O)C(=O)NCCCCNCCCN (some centres unmarked) [Spergualin] | – | 106 | 28 | – | – | – | – | – | – | – | – | – | – | – | –
4 | N=C(N)NCCCCCCCCC(=O)NC(O)C(=O)NCCCCNCCCN (centres unmarked) [(3), N-[4-(3-aminopropyl)aminobutyl]-2-(9-guanidinononaneamido)-2-hydroxyethaneamide] | 12.5 to 25 | 11 | 6.6 | – | – | 55 | 32 | – | – | – | – | – | – | – | –
5 | N=C(N)NCCCCCCC(=O)NCC(=O)NCCCCNCCCN [(4), N-[4-(3-aminopropyl)aminobutyl]-2-(7-guanidinoheptaneamido)-ethaneamide] | 12.5 to 25 | – | – | 46 | – | – | 111 | 99 | strong ability to inhibit | 99 | 100 | highly effective in suppressing | 100 | 100 | 89,4%
6 | N=C(N)NCCCCC=CC(=O)NC(O)C(=O)NCCCCNCCCN (centres unmarked) [(11), N-[4-(3-aminopropyl)aminobutyl]-2-[7-guanidinohepta-2-enamido]-2-hydroxyethaneamide] | 25 to 50 | 40 | 8.5 | – | – | – | – | – | strong ability to inhibit | 88 | 100 | highly effective in suppressing | 98 | 100 | –
7 | N=C(N)Nc1ccc(CCCCC(=O)N[C@@H](CO)C(=O)NCCCCNCCCN)cc1 [(9), N-[4-(3-aminopropyl)aminobutyl]-2-[5-(p-guanidinophenyl)-pentaneamido]-(S)-2-hydroxymethylethaneamide] | 25 to 50 | 45 | 52 | – | – | – | – | – | – | – | – | – | – | – | –
8 | COC(NC(=O)CCCCCCNC(=N)N)C(=O)NCCCCNCCCN (centres unmarked) [(2), N-[4-(3-aminopropyl)aminobutyl]-2-(7-guanidinoheptaneamino)-2-methoxyethaneamide] | 12.5 to 25 | 5.5 | – | – | – | 99 | 49 | – | – | – | – | – | – | – | 95.9%
9 | N=C(N)NCc1ccc(CCC(=O)N[C@@H](CO)C(=O)NCCCCNCCCN)cc1 [(8), N-[4-(3-aminopropyl)aminobutyl]-2-[3-(p-guanidinomethylphenyl)propaneamido]-(S)-2-hydroxymethylethaneamide] | 25 to 50 | 50 | 20 | – | – | – | – | – | strong ability to inhibit | 79 | 100 | – | – | – | –
10 | N=C(N)NCCCCCCC(=O)N[C@@H](CO)C(=O)NCCCCNCCCN [(5), N-[4-(3-aminopropyl)aminobutyl]-2-(7-guanidinoheptaneamido)-(S)-2-hydroxymethylethaneamide] | 12.5 to 25 | 58 | – | – | – | 81 | 117 | – | strong ability to inhibit | 96 | 100 | highly effective in suppressing | 88 | 100 | 89,4%
11 | N=C(N)NCCCCCCC(=O)NC(O)C(=O)NCCCCNCCCN (centres unmarked) [(1), N-[4-(3-aminopropyl)aminobutyl]-2-(7-guanidinoheptaneamido)-2-hydroxyethaneamide] | 25 to 50 | 29 | 15 | – | – | 72 | 87 | – | strong ability to inhibit | 93 | 100 | highly effective in suppressing | 98 | 100 | 98.5%
12 | N=C(N)Nc1ccc(CCCC(=O)NCC(=O)NCCCCNCCCN)cc1 [(6), N-[4-(3-aminopropyl)aminobutyl]-2-[4-(p-guanidinophenyl)butaneamido]ethaneamide] | 25 to 50 | – | – | 102 | 33 | – | – | – | strong ability to inhibit | 99 | 100 | highly effective in suppressing | 96 | 100 | 92,9%

Reference: EP0181592B1, “Use of spergualin derivatives for the preparation of medicaments having immunosuppressive activity” (MICROBIAL CHEMISTRY RESEARCH FOUNDATION, priority 1984, dated 1986)
